Assay results taken from patent EP4768499A1, “MACROCYCLIC PEPTIDE COMPOUND HAVING CELL MEMBRANE PERMEABILITY AND METABOLIC STABILITY, AND LIBRARY CONTAINING SAME” (Chugai Seiyaku Kabushiki Kaisha, priority 2023, dated 2025).
Read-outs that look alike come from different tables or passages of the source. Starred links: 1 amine or outer side, 2 acyl side, 3 side chain; linkers in the order of their positions; H or OH if unused. Positions of bridges follow the written chain, without caps; N, C: chain ends. Non-standard residues stand in square brackets, D forms with d. Residues, ends and D or L forms follow the SMILES beside them. *: point of attachment. NMedβ3hAla = C[C@H](CC(=O)[*:2])N(C)[*:1]; NMeF = CN[C@@H](Cc1ccccc1)C(=O)O; NMeGABA = CN(CCCC(=O)[*:2])[*:1]; NMeI = CC[C@H](C)[C@H](NC)C(=O)O; NMeT = CN[C@H](C(=O)O)[C@@H](C)O; hPhe = N[C@@H](CCc1ccccc1)C(=O)O; NMeβAla = CN(CCC(=O)[*:2])[*:1]; NMeD = CN[C@@H](CC(=O)O)C(=O)O; NMeL = CN[C@@H](CC(C)C)C(=O)O; dNMeV = CN[C@@H](C(=O)O)C(C)C; NMeV = CN[C@H](C(=O)O)C(C)C; d(β3hA) = C[C@@H](N)CC(=O)O; NMeAbu = CC[C@H](NC)C(=O)O; NMeA = CN[C@@H](C)C(=O)O; Piperidide = C1CCN(*)CC1; Abu = CC[C@H](N)C(=O)O; NBuGly = CCCCNCC(=O)O; βAla = NCCC(=O)O; Sar = CNCC(=O)O; tBu = CC(C)(C)*

Experiments:
[1] = Metabolic stability test: liver microsomal stability assay; assay type: in vitro ADME, mouse; conditions: for microsomal CLint at 1 µM: male, pH 7.4, presence of NADPH, read-out: Mouse Hepatic Microsome CLh,int NADPH(+)
[2] = Membrane permeability test using Caco-2 cells with preincubation; assay type: in vitro ADME; conditions: Caco-2
Caco-2 cells = test: as above; assay type: in vitro ADME
[3] = mouse liver microsomes 0.5 mg protein/mL, compound 1 µM
[4] = mouse liver microsomes 0.5 mg protein/mL, compound 1 µM, absence of NADPH
[5] = preincubation 20 to 24 hours, Apical FaSSIF/HBSS pH 6.0, Basal HBSS 4% BSA pH 7.4, 180 minutes, read-out: Caco2 Papp
[6] = Caco-2 cells, preincubation 20 to 24 hours, apical FaSSIF/HBSS 1% DMSO pH 6.0, basal HBSS 4% BSA pH 7.4, basal sample at 180 minutes

Row | SMILES | microsomal CLint at 1 µM [1, 3] [µL/min/mg] | Mouse Hepatic Microsome CLh,int NADPH(-) [1, 4] [µL/min/mg Protein] | Papp A→B [2, 5] [×10⁻⁶ cm/s] | Caco2 Papp (10^-6 cm/sec) (Caco-2 cells; [6]) | Mouse Hepatic Microsome CLh,int NADPH(-) [1] [µL/min/mg Protein] | Papp A→B [2] [×10⁻⁶ cm/s] | Caco2 Papp (10^-6 cm/sec) (Caco-2 cells; Caco-2)
1 | CC[C@H](C)[C@@H]1NC(=O)[C@H]([C@@H](C)CC)N(C)C(=O)[C@@H](C)NC(=O)C[C@@H](C(=O)N2CCCCC2)N(C)C(=O)[C@H](C(C)C)NC(=O)[C@H](Cc2ccccc2)N(C)C(=O)[C@H](COC(C)(C)C)NC(=O)[C@H](CC(C)C)N(C)C(=O)[C@H](C)NC(=O)CN(C)C(=O)[C@H](CC(C)C)N(C)C(=O)[C@H](C)N(C)C(=O)[C@H](Cc2ccccc2)N(C)C1=O [pd151] ([dA][NMeI]I[NMeF][NMeA][NMeL][Sar]A[NMeL]S(tBu)[NMeF]V[NMeD]-Piperidide; lactam N-13) | 29.6 | 22.4 | 0.39 | 0.39 10^-6 cm/sec | – | – | –
2 | CC[C@@H]1NC(=O)[C@@H]2CCCN2C(=O)[C@H](C(C)C)NC(=O)[C@H](Cc2ccccc2)N(C)C(=O)[C@H](C)N(C)C(=O)[C@H](CC(C)C)N(C)C(=O)[C@H]([C@@H](C)O)N(C)C(=O)[C@H](CC(C)C)N(C)C(=O)[C@H](CC)NC(=O)[C@H](Cc2ccccc2)N(C)C(=O)CN(C)C(=O)C[C@@H](C(=O)N2CCCCC2)NC(=O)[C@H](C(C)C)N(C)C1=O [pd122] ([Sar][NMeF][Abu][NMeL][NMeT][NMeL][NMeA][NMeF]VP[Abu][NMeV]D-Piperidide; lactam N-13) | 11.1 | 9.6 | 0.06 | 0.06 10^-6 cm/sec | – | – | –
3 | CC(C)C[C@@H]1NC(=O)[C@H](CC(C)C)N(C)C(=O)[C@H]([C@@H](C)O)NC(=O)[C@H](C(C)C)N(C)C(=O)[C@H](Cc2ccccc2)N(C)C(=O)[C@@H](C(C)C)NC(=O)C[C@@H](C(=O)N2CCCCC2)N(C)C(=O)[C@H](C)N(C)C(=O)[C@H](Cc2ccccc2)N(C)C(=O)[C@H](C)NC(=O)[C@H](COC(C)(C)C)NC(=O)[C@H](CC(C)C)N(C)C(=O)CN(C)C1=O [pd158] ([dV][NMeF][NMeV]T[NMeL]L[Sar][NMeL]S(tBu)A[NMeF][NMeA][NMeD]-Piperidide; lactam N-13) | 19.3 | 13.7 | 0.44 | 0.44 10^-6 cm/sec | – | – | –
4 | CC[C@H](C)[C@@H]1NC(=O)[C@H](CC(C)C)N(C)C(=O)[C@H](C)N(C)C(=O)[C@H](C)NC(=O)C[C@@H](C)N(C)C(=O)[C@H](CC(C)C)N(C)C(=O)[C@H](C)N(C)C(=O)CN(C)C(=O)[C@H]([C@@H](C)O)NC(=O)[C@H](Cc2ccccc2)N(C)C(=O)[C@H](CC(C)C)N(C)C(=O)[C@H](C(C)C)NC(=O)[C@H]([C@@H](C)CC)N(C)C1=O [pd148] (cyclo(A[NMeA][NMeL]I[NMeI]V[NMeL][NMeF]T[Sar][NMeA][NMeL][NMedβ3hAla])) | 25.2 | 16.8 | 0.12 | 0.12 10^-6 cm/sec | – | – | –
5 | CC[C@@H]1NC(=O)[C@H](C(C)C)N(C)C(=O)[C@H](CC(C)C)NC(=O)[C@H](Cc2ccccc2)N(C)C(=O)[C@@H](C(C)C)N(C)C(=O)C[C@@H](C(=O)N2CCCCC2)NC(=O)[C@H](CC(C)C)NC(=O)[C@H](C(C)C)N(C)C(=O)[C@H](Cc2ccccc2)N(C)C(=O)[C@H](CC(C)C)NC(=O)[C@H](CC(C)C)N(C)C(=O)[C@H](C)N(C)C(=O)[C@H]([C@@H](C)O)NC(=O)[C@H](CC(C)C)N(C)C1=O [pd033] ([dNMeV][NMeF]L[NMeV][Abu][NMeL]T[NMeA][NMeL]L[NMeF][NMeV]LD-Piperidide; lactam N-14) | 47.8 | 34.1 | 0.03 | 0.03 10^-6 cm/sec | – | – | –
6 | CC[C@H](C)[C@@H]1NC(=O)[C@H](CC(C)C)N(C)C(=O)[C@H](CC(C)C)NC(=O)CCN(C)C(=O)C[C@@H](C)N(C)C(=O)[C@H](CC(C)C)N(C)C(=O)CNC(=O)[C@@H]2CCCN2C(=O)[C@H](CC(C)C)N(C)C(=O)CCNC(=O)[C@H]([C@@H](C)CC)N(C)C(=O)[C@H](CCc2ccccc2)NC(=O)[C@H](Cc2ccccc2)N(C)C1=O [pd141] (cyclo(G[NMeL][NMedβ3hAla][NMeβAla]L[NMeL]I[NMeF][hPhe][NMeI][βAla][NMeL]P)) | – | – | – | – | 21.1 | 0.24 | 0.24 10^-6 cm/sec
7 | CCCCN1CC(=O)N[C@@H](CC(C)C)C(=O)N(C)[C@@H]([C@@H](C)CC)C(=O)N[C@@H](CC)C(=O)N(C)[C@@H]([C@@H](C)O)C(=O)N(C)[C@@H](Cc2ccccc2)C(=O)N[C@@H]([C@@H](C)CC)C(=O)N(C)[C@@H](CC(C)C)C(=O)N[C@H](C(=O)N2CCCCC2)CC(=O)N(C)[C@@H](C)C(=O)N[C@@H](CC(C)C)C(=O)N(C)[C@@H](CC(C)C)C(=O)N(C)[C@@H](Cc2ccccc2)C(=O)N[C@@H](CC)C1=O [pd035] ([NMeA]L[NMeL][NMeF][Abu][NBuGly]L[NMeI][Abu][NMeT][NMeF]I[NMeL]D-Piperidide; lactam N-14) | 28.3 | 27.5 | < 0.11 | <0.11 10^-6 cm/sec | – | – | –
8 | CC[C@@H]1NC(=O)[C@H](Cc2ccccc2)N(C)C(=O)[C@H](CC(C)C)NC(=O)CNC(=O)[C@H]([C@@H](C)O)N(C)C(=O)[C@H](CC(C)C)N(C)C(=O)[C@H]([C@@H](C)CC)NC(=O)[C@H](Cc2ccccc2)N(C)C(=O)CN(C)C(=O)C[C@@H](C(=O)N2CCCCC2)NC(=O)[C@H](C(C)C)N(C)C(=O)[C@H](CC(C)C)NC(=O)[C@H](C(C)C)NC(=O)[C@H](C)N(C)C1=O [pd030] ([Sar][NMeF]I[NMeL][NMeT]GL[NMeF][Abu][NMeA]VL[NMeV]D-Piperidide; lactam N-14) | 33.7 | 28.5 | 0.04 | 0.04 10^-6 cm/sec | – | – | –
9 | CC(C)C[C@@H]1NC(=O)[C@H](C(C)C)N(C)C(=O)[C@H](Cc2ccccc2)N(C)C(=O)[C@H](COC(C)(C)C)NC(=O)[C@H](CC(C)C)N(C)C(=O)[C@H](C)N(C)C(=O)[C@H]([C@@H](C)O)NC(=O)[C@H](CC(C)C)N(C)C(=O)[C@H](C(C)C)N(C)C(=O)[C@H](CCc2ccccc2)NC(=O)[C@H](CC(C)C)N(C)C(=O)[C@@H](C(C)C)N(C)C(=O)C[C@@H](C(=O)N2CCCCC2)N(C)C1=O [pd161] ([dNMeV][NMeL][hPhe][NMeV][NMeL]T[NMeA][NMeL]S(tBu)[NMeF][NMeV]L[NMeD]-Piperidide; lactam N-13) | 35.3 | 37.0 | 0.09 | 0.09 10^-6 cm/sec | – | – | –
10 | CC[C@H](C)[C@@H]1NC(=O)[C@H](C)N(C)C(=O)[C@H]([C@@H](C)O)N(C)C(=O)[C@H](CC(C)C)N(C)C(=O)[C@H](C(C)C)NC(=O)[C@H](Cc2ccccc2)N(C)C(=O)[C@H](Cc2ccccc2)N(C)C(=O)[C@H](C)NC(=O)[C@H](CC)N(C)C(=O)[C@H]([C@@H](C)CC)NC(=O)CCCN(C)C(=O)C[C@@H](C)NC(=O)[C@H](C(C)C)N(C)C1=O [pd132] (cyclo(A[NMeF][NMeF]V[NMeL][NMeT][NMeA]I[NMeV][d(β3hA)][NMeGABA]I[NMeAbu])) | 16.2 | 7.7 | 0.36 | 0.36 10^-6 cm/sec | – | – | –
